From patent US5495005A, “Synthesis and pharmacological activity of a series of novel xanthone derivatives” (National Science Council, priority 1993, dated 1996)
pIC50: −log10 of the molar value. One block for each molecule: values may come before it.

Columns and labels:
rat's thoracic aorta = assay: contraction of rat's thoracic aorta induced by calcium/high potassium or norepinephrine
anesthetized rats = assay: blood pressure and heart beat of anesthetized rats after i.v. injection; type: in vivo; conditions: for blood pressure of anesthetized rats: anesthetized rat
platelet = conditions: literature report; cited from earlier work
rabbit platelet = assay: collagen-induced aggregation of washed rabbit platelets (turbidimetry); type: cell-based; conditions: comparison with norathyrol
Experimental: It is known that ADP, arachidonic acid, PAF and collagen treatment will lead to the aggregation of rabbit platelet. […] Using 10 μg/ml of collagen as inducer of platelet aggregation, tile replacement of the methoxy or hydroxy group on the C-3 by the 3-propylamino-2-hydroxypropoxyl group increases the inhibitory effect on platelet aggregation. The reaction mechanisms of 1,3,6,7,-tetraoxygenated xanthones and 3,4-dihydroxygenated xanthone inhibit the formation of A2 -thromboxane and the degradation of phosphoinositide, and inhibit the activity of A2 -thromboxane, respectively.
Based on the method of Teng et. al. (Ouyang, C. Biochem. Biophys. Acta. 1987, 924:375), rabbit platelets were washed with platelet-rich plasma which was adjusted with EDTA for anti-aggregation. Counted by Coulter Counter (model, ZM), the platelets were adjusted to a density of 4.5×10^8 platelets/ml by Tyrode's solution which contains 136.8 mM NaCl, 2.8 mM KCl, 1.0 mM CaCl2 and 11.2 mM glucose, and 0. 35% bovine serum albumin. Platelets were agitated at a speed of 1200 rpm to form a suspension. All xanthone derivatives tested were dissolved in DMSO. The concentration of DMSO was limited to 0.5% to prevent its interference to the aggregation reaction. The aggregation was assayed by O'Brin's turbidometer. To determine the degree of aggregation, the absorbance of platelet suspension was referred as 0% aggregation and that of the platelet […] was used for 100%. Lumiaggregometer (Chromo-Log Co. USA) was used to carry out the aggregation assay.

[1] = target: angiotension I converting enzyme; assay: inhibition of angiotension I converting enzyme; type: biochemical; conditions: read-out: IC50 toward angiotension I converting enzyme
angiotension I converting enzyme, sequence (P12821 30-1306): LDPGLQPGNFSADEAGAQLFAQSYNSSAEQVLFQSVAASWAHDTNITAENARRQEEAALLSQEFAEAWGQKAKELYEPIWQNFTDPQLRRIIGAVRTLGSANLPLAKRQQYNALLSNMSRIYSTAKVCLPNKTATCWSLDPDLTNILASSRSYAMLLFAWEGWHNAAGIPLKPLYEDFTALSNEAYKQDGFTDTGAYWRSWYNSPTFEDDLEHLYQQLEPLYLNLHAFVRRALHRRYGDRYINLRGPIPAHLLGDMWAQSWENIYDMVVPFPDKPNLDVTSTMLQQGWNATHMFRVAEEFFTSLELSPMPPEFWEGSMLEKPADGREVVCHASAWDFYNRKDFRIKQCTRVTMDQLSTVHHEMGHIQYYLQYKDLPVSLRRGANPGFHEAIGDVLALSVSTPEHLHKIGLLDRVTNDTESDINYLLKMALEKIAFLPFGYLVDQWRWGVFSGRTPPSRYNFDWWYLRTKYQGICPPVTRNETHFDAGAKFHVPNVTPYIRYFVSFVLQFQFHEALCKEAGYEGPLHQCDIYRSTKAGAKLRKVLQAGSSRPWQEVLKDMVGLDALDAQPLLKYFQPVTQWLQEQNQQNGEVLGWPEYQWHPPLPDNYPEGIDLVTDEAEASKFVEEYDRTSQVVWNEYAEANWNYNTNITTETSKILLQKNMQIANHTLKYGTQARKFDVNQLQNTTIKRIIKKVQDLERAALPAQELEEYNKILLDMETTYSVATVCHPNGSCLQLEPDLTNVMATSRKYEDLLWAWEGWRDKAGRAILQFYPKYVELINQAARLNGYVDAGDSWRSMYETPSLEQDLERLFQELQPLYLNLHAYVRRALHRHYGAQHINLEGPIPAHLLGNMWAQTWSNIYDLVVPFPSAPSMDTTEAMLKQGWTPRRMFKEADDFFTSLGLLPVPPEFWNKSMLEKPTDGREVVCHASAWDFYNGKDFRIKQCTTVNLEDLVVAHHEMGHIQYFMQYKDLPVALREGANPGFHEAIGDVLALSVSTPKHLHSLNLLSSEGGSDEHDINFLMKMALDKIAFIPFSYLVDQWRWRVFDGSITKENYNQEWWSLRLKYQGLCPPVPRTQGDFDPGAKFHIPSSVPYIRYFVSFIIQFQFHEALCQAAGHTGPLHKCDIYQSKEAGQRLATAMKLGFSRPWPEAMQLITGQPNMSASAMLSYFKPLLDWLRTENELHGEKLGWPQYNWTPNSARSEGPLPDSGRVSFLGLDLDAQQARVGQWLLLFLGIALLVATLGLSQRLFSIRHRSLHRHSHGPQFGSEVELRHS

myocardiac cells = conditions: literature report; cited from earlier work
[2] = test system: atrioventricular conduction; conditions: literature report; cited from earlier work
peripheral blood vessels = conditions: literature report; cited from earlier work

Molecule: CC(C)NCC(O)COc1ccc2c(=O)c3ccccc3oc2c1 (stereo not drawn) [3[3-(Isopropylamino)-2-hydroxypropoxyl)] xanthone]
inhibition of contraction of rat's thoracic aorta induced by high potassium (rat's thoracic aorta; 10^-4 M, potassium ion 100 mM): significantly inhibit the contraction | heart beat of the anesthetized rat (anesthetized rats): slow down the heart beat | blood pressure of anesthetized rats (anesthetized rats): significantly reduce the blood pressure

Molecule: tripteroside acetate
inhibition on platelet aggregation (platelet): strong inhibition on platelet aggregation

Molecule: CC(=O)Oc1cc2oc3ccccc3c(=O)c2cc1OC(C)=O [2,3-dihydroxyxanthone diacetate, 2,3-Dihydroxyxanthone diacetate]
effect on inhibiting collagen-induced platelet aggregation, compared with norathyrol (rabbit platelet): more significant effect on inhibiting collagen-induced platelet aggregation than norathyrol

pIC50 [1]: 4.45
Molecule: O=c1c2cc(O)c(O)cc2oc2c(O)c(O)ccc12 [3,4,6,7-tetrahydroxyxanthone, 3,4,6,7-Tetrahydroxyxanthone]
blood pressure of anesthetized rats (anesthetized rats): reducing the blood pressure

Molecule: O=c1c2ccccc2oc2cc(OCC(O)CNC3CCCCC3)ccc12 (stereo not drawn) [3-[3-(Cyclohexylamino)-2-hydroxypropoxy] xanthone]
effect on inhibiting collagen-induced platelet aggregation, compared with norathyrol (rabbit platelet): more significant effect on inhibiting collagen-induced platelet aggregation than norathyrol

Molecule: CCCNCC(O)COc1ccc2c(=O)c3ccccc3oc2c1 (stereo not drawn) [3 [3-(propylamino)-2-hydroxypropoxy]xanthone]
heart beat of the anesthetized rat (anesthetized rats): slow down the heart beat | blood pressure of anesthetized rats (anesthetized rats): significantly reduce the blood pressure

Molecule: CC(=O)Oc1cc2oc3c(OC(C)=O)c(OC(C)=O)ccc3c(=O)c2cc1OC(C)=O [3 '4 '6 '7-Tetrahydroxyxanthone acetate]
effect on inhibiting collagen-induced platelet aggregation, compared with norathyrol (rabbit platelet): more significant effect on inhibiting collagen-induced platelet aggregation than norathyrol

Molecule: O=c1c2cc(O)c(O)cc2oc2cc(O)cc(O)c12 [norathyriol]
inhibition of calcium influx in myocardiac cells (myocardiac cells): inhibit the calcium influx | atrioventricular conduction of a rabbit [2]: significantly depress the atrioventricular conduction | relaxation of peripheral blood vessels (peripheral blood vessels): strongly relax the peripheral blood vessels

Molecule: O=c1c2ccccc2oc2cc(O)c(O)cc12 [2,3-dihydroxyxanthone, 2,3-Dihydroxyxanthone]
inhibition of muscle contraction in rat's thoracic aorta induced by calcium ion at high potassium (rat's thoracic aorta; 100 μg/ml, 1.9 mM calcium ion, 80 mM potassium ion): significantly inhibit | inhibition of phasic or tonic muscle contraction induced by norepinephrine (rat's thoracic aorta; 100 μg/ml, 3 mM norepinephrine): significantly inhibit | blood pressure of anesthetized rats (anesthetized rats): significantly lowered the blood pressure

Molecule: CC(=O)Oc1cc(OC(C)=O)c2c(=O)c3cc(OC(C)=O)c(OC(C)=O)cc3oc2c1 [norathyrol acetate]
inhibition on platelet aggregation (platelet): strong inhibition on platelet aggregation
